Non-standard residues stand in square brackets, D forms with d. Residues, ends and D or L forms follow the SMILES beside them. dPhe(4-Cl) = N[C@H](Cc1ccc(Cl)cc1)C(=O)O; d2Nal = N[C@H](Cc1ccc2ccccc2c1)C(=O)O; dCit = NC(=O)NCCC[C@@H](N)C(=O)O; d3Pal = N[C@H](Cc1cccnc1)C(=O)O

A short description of data set [1]: AUC in human at 0.25 mg, sc QD after 24 hrs. Format: ADME, organism-based. Details: dose 0.25 mg, time < 24 hr, route subcutaneous. To be noted: in vivo.
Data set [2] can be described thus: AUC in human at 3 mg, sc administered as single dose during early to mild follicular phase after 24 hrs. Format: ADME, organism-based. To be noted: female, in vivo. Further details: dose 3 mg, time < 24 hr, route subcutaneous.
In data set [3] the target is ATP-binding cassette sub-family C member 3 (Homo sapiens, UniProt O15438). As to the kind of experiment: Inhibition of human MRP3 overexpressed in Sf9 insect cell membrane vesicles assessed as uptake of [3H]-estradiol-17beta-D-glucuronide in presence of ATP and GSH measured after 10 mins by membrane vesicle transport assay. Format: ADME, cell-based.
Sequence of ATP-binding cassette sub-family C member 3 (O15438 whole entry): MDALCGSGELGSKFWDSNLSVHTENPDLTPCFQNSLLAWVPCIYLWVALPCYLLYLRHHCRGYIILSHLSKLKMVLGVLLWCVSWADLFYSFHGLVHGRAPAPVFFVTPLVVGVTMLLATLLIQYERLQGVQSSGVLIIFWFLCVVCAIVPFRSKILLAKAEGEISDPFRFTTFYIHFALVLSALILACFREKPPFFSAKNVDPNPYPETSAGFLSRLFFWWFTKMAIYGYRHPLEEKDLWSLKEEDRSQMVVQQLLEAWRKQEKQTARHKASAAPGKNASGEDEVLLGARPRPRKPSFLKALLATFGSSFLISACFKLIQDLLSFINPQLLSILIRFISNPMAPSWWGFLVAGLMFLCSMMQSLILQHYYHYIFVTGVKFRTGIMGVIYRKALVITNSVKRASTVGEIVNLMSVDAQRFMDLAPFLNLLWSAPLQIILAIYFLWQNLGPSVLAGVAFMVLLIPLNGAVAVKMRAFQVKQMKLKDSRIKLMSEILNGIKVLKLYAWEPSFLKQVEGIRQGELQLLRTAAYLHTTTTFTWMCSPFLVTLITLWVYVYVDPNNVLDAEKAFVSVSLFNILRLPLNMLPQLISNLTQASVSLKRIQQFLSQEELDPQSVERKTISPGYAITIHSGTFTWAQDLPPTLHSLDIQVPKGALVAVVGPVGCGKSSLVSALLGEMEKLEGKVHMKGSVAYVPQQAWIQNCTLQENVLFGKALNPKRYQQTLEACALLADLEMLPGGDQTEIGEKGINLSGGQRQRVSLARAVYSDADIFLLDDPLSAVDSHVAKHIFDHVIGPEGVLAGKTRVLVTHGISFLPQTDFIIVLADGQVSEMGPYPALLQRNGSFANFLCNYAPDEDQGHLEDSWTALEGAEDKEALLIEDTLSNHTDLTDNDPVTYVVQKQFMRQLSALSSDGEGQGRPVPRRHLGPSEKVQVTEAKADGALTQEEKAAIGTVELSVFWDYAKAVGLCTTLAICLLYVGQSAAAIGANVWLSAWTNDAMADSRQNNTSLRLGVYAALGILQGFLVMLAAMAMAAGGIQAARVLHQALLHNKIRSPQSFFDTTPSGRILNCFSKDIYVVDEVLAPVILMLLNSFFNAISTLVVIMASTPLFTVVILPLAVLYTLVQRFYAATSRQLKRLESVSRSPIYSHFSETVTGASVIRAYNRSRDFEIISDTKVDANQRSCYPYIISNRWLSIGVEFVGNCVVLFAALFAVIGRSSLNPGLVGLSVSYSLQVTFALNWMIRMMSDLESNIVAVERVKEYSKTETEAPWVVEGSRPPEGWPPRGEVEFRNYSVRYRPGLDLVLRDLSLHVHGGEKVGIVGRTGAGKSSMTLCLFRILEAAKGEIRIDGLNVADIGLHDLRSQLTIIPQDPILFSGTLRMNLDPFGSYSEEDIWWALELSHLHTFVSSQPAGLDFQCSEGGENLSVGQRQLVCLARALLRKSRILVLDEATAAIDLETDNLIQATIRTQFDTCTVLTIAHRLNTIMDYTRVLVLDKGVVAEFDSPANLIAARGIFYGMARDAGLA
In data set [4] the test system is Homo sapiens. As to the kind of experiment: Drug concentration at steady state in human 3 mg, sc administered as single dose during early to mild follicular phase after 24 hrs. The following applies: in vivo. Format: ADME, organism-based.
Data set [5] concerns Homo sapiens. As to the kind of experiment: Ratio of drug concentration at steady state in human at 3 mg, sc administered as single dose during early to mild follicular phase after 24 hrs to IC50 for human BSEP overexpressed in Sf9 insect cells. Format: ADME, organism-based. To be noted: in vivo.
Data set [6] concerns Homo sapiens. Briefly: Ratio of drug concentration at steady state in human at 0.25 mg, sc QD after 24 hrs to IC50 for human BSEP overexpressed in Sf9 insect cells. To be noted: in vivo. Format: ADME, organism-based.
In the next data set the target is Bile salt export pump (Homo sapiens, UniProt O95342). Briefly: Inhibition of human BSEP overexpressed in Sf9 cell membrane vesicles assessed as uptake of [3H]-taurocholate in presence of ATP measured after 15 to 20 mins by membrane vesicle transport assay. Format: ADME, cell-based.
Sequence of Bile salt export pump (O95342 whole entry): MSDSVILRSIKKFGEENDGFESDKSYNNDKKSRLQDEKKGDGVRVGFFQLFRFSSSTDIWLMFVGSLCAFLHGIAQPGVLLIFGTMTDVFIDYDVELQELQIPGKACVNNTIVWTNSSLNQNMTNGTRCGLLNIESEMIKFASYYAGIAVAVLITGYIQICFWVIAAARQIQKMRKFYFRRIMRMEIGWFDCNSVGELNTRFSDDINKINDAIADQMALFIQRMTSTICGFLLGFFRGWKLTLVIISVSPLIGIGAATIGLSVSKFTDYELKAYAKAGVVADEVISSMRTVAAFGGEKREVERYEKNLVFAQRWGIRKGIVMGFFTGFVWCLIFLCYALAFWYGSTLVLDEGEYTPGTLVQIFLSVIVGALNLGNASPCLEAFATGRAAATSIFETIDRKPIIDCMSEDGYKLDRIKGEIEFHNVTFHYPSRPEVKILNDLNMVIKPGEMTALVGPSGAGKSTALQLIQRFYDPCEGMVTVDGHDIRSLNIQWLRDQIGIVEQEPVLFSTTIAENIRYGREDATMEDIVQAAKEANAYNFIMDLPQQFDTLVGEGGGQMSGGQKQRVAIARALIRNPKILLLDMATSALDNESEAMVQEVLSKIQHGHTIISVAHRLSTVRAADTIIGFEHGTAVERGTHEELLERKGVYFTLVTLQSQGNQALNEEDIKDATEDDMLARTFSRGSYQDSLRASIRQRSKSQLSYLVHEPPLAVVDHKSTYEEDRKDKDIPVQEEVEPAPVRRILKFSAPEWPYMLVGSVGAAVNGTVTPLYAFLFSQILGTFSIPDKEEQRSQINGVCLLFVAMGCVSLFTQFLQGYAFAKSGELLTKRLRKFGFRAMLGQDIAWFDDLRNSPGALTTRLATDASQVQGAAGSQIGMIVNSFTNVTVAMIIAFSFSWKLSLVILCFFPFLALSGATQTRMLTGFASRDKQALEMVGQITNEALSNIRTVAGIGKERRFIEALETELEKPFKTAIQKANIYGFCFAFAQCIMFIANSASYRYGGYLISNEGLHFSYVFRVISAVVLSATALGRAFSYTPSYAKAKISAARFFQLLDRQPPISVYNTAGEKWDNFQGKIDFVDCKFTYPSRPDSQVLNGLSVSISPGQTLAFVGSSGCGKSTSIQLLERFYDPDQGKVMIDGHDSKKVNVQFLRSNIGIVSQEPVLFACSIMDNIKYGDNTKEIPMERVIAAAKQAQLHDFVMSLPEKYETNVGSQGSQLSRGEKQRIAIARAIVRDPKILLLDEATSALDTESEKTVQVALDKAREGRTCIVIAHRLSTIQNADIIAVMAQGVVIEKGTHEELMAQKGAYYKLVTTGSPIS
Data set [7] concerns the target ATP-binding cassette sub-family C member 2 (Homo sapiens, UniProt Q92887). Briefly: Inhibition of human MRP2 overexpressed in Sf9 cell membrane vesicles assessed as uptake of [3H]-estradiol-17beta-D-glucuronide in presence of ATP and GSH measured after 20 mins by membrane vesicle transport assay.
The nature of data set [8]: Drug concentration at steady state in human at 0.25 mg, sc QD after 24 hrs. Format: ADME, organism-based. The following applies: in vivo, read-out: Css.
The target of data set [9] is T1, ATP-binding cassette sub-family C member 4 (Homo sapiens, UniProt O15439).
T1 sequence (O15439 whole entry): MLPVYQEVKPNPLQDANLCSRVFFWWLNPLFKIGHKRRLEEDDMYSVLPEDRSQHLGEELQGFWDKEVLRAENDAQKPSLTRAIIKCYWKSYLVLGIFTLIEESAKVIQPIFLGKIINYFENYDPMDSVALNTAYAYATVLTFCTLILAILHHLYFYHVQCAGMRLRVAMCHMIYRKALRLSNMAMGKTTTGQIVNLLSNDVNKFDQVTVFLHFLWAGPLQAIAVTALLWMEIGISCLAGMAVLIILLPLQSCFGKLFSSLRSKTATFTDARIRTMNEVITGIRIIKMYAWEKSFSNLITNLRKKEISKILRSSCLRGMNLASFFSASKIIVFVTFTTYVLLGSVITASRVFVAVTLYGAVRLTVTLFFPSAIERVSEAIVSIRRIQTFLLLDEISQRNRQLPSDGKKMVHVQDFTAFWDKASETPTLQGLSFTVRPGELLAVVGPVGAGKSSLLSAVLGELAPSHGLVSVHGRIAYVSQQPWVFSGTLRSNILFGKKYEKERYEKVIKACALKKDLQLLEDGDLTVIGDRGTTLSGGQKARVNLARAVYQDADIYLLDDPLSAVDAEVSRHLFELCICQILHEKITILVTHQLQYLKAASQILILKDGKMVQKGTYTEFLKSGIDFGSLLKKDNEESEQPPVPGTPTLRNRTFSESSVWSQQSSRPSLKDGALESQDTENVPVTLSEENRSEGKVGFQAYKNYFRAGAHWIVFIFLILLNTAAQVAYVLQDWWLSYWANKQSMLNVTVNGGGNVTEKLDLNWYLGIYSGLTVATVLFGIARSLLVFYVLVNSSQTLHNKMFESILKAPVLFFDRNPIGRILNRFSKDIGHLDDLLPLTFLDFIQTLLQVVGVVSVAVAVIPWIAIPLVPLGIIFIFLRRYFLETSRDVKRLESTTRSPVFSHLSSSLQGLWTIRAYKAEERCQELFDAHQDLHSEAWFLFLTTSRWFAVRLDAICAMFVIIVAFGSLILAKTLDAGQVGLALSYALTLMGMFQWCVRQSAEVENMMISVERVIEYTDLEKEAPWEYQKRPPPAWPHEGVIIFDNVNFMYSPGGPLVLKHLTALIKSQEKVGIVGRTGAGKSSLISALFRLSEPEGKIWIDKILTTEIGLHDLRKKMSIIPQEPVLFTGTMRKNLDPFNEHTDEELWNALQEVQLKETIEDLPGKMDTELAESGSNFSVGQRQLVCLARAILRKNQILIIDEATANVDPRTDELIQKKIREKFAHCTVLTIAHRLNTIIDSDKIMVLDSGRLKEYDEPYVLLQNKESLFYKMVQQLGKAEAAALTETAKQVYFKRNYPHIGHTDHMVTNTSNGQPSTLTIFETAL
Briefly: Inhibition of human MRP4 overexpressed in Sf9 cell membrane vesicles assessed as uptake of [3H]-estradiol-17beta-D-glucuronide in presence of ATP and GSH measured after 20 mins by membrane vesicle transport assay. Format: ADME, cell-based.

Data set [10] is described as follows: Ratio of drug concentration at steady state in human at 100 to 300 mg, po QD after 24 hrs to IC50 for human MRP4 overexpressed in Sf9 insect cells. Format: ADME, organism-based. The following applies: in vivo.
Data set [11] in a line: Ratio of drug concentration at steady state in human at 100 to 300 mg, po QD after 24 hrs to IC50 for human BSEP overexpressed in Sf9 insect cells. Format: ADME, organism-based. To be noted: in vivo.
Data set [12] is described as follows: Drug concentration at steady state in human at 100 to 300 mg, po QD after 24 hrs. Format: ADME, organism-based. To be noted: in vivo, read-out: Css.
A short description of data set [13]: Ratio of drug concentration at steady state in human at 100 to 300 mg, po QD after 24 hrs to IC50 for human MRP2 overexpressed in Sf9 insect cells. The following applies: in vivo. Format: ADME, organism-based.
The nature of data set [14]: Cmax in human at 100 to 300 mg, po QD after 24 hrs. The following applies: in vivo. Format: ADME, organism-based.
Data set [15] can be described thus: Ratio of drug concentration at steady state in human at 100 to 300 mg, po QD after 24 hrs to IC50 for human MRP3 overexpressed in Sf9 insect cells. To be noted: in vivo. Format: ADME, organism-based.
Data set [16] concerns Homo sapiens. As to the kind of experiment: Ratio of drug concentration at steady state in human at 200 mg, po QD for 1 to 2 weeks after 24 hrs to IC50 for human BSEP overexpressed in Sf9 insect cells. Format: ADME, organism-based. The following applies: in vivo.
Data set [17] can be described thus: Drug concentration at steady state in human at 200 mg, po QD for 1 to 2 weeks after 24 hrs. The following applies: in vivo, read-out: Css. Format: ADME, organism-based.
A short description of data set [18]: AUC in human at 200 mg, po QD for 1 to 2 weeks after 24 hrs. Format: ADME, organism-based. Details: time < 24 hr, dose 200 mg, route oral. The following applies: in vivo.
Data set [19] is described as follows: AUC in human at 250 to 500 mg, po QD after 24 hrs. Format: ADME, organism-based. To be noted: in vivo.

Sequence of ATP-binding cassette sub-family C member 2 (Q92887 whole entry): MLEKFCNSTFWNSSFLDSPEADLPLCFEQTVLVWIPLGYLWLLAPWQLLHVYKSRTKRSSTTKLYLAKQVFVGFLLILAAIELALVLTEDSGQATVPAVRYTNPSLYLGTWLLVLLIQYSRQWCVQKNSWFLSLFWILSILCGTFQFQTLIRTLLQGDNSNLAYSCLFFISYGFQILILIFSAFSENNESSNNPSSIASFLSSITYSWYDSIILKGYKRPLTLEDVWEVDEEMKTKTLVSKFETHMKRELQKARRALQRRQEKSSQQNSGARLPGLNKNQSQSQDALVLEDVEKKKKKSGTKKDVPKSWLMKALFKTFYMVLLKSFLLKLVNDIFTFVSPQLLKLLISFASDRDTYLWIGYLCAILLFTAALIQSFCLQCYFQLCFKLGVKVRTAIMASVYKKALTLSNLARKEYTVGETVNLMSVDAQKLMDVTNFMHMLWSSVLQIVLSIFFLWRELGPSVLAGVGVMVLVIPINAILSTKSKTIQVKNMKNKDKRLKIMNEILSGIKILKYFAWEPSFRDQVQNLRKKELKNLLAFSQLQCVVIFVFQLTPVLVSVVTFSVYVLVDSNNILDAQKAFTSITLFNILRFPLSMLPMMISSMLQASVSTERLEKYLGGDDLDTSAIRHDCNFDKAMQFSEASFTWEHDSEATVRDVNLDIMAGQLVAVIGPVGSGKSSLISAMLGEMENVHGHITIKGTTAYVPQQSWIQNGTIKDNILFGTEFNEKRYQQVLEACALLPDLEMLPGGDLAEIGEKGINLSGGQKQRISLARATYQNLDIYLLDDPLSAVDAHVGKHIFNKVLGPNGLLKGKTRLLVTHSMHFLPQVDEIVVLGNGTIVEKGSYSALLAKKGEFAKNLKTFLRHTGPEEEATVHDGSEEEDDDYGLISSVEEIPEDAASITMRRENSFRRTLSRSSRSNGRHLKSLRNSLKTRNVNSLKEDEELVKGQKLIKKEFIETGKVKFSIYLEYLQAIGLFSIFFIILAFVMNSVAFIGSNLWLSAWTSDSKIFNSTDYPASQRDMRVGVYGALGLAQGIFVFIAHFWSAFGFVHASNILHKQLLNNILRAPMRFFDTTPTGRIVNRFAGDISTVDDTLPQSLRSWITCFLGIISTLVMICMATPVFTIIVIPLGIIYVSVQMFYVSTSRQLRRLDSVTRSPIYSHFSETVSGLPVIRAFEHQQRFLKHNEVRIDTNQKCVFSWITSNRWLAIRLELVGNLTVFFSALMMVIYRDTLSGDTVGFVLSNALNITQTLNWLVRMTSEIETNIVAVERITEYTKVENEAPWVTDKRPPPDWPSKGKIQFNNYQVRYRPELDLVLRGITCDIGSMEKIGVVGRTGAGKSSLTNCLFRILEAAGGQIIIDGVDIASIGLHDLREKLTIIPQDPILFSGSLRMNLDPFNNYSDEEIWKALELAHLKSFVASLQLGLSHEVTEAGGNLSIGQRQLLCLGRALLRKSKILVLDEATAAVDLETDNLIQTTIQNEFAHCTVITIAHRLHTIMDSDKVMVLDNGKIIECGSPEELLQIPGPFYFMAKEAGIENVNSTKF

For `CC(=O)N[C@H](Cc1ccc2ccccc2c1)C(=O)N[C@H](Cc1ccc(Cl)cc1)C(=O)N[C@H](Cc1cccnc1)C(=O)N[C@@H](CO)C(=O)N[C@@H](Cc1ccc(O)cc1)C(=O)N[C@H](CCCNC(N)=O)C(=O)N[C@@H](CC(C)C)C(=O)N[C@@H](CCCNC(=N)N)C(=O)N1CCC[C@H]1C(=O)N[C@H](C)C(N)=O.CC(=O)O` [CETRORELIX ACETATE] (Ac-[d2Nal][dPhe(4-Cl)][d3Pal]SY[dCit]LRP[dA]-NH2), the AUC at 24 h in data set [1] and in [2] was 0.375 µM·h in each case. For the same molecule, the IC50 (commonly the concentration that inhibits the measured activity by half) is over 133 µM in data set [3], 1.47 µM on Bile salt export pump, over 133 µM in data set [7] and over 133 µM in data set [9]. In the data set with Homo sapiens [4], this molecule displayed a Css of 16 nM. The Ratio in the data set on Homo sapiens [5] and in the data set with Homo sapiens [6] was 0.011 in each case. The concentration at 24 h in data set [8] is 16 nM.

Consider `CC(C)/N=c1\cc2n(-c3ccc(Cl)cc3)c3ccccc3nc-2cc1Nc1ccc(Cl)cc1` [CLOFAZIMINE], for which the IC50 turned out to be 21 µM in [3], 10.4 µM in data set [7] and 44.5 µM in data set [9]. For the same molecule, the Ratio in [10] was found to be 0.002; in [11] it was 0.007; in data set [13] it was 0.008; in [15] it was 0.004. Further, the concentration at 24 h in data set [12] amounted to 88 nM. In addition, the Cmax (usually the highest concentration seen after dosing) in [14] was 2.11 ng/mL.

In the case of `CCC(C)n1ncn(-c2ccc(N3CCN(c4ccc(OCC5COC(Cn6cncn6)(c6ccc(Cl)cc6Cl)O5)cc4)CC3)cc2)c1=O` (stereo not drawn) [ITRACONAZOLE], the IC50 in data set [3], in [7] and in data set [9] was over 133 µM each time. Also, the Ratio with Homo sapiens [16] was 0.02. The concentration at 24 h in data set [17] is 362 nM. The AUC (commonly the area under the concentration-time curve, a measure of exposure) at 24 h in data set [18] is 8.69 µM·h.

In data set [19], `COc1cc2ncnc(Nc3ccc(F)c(Cl)c3)c2cc1OCCCN1CCOCC1` [GEFITINIB] gave an AUC at 24 h of 5.38 µM·h. Further, the IC50 in data set [3] and in data set [7] was over 133 µM throughout.
